Results reported in patent publication US8815900B2, “Compounds and compositions for reducing lipid levels” (CVI Pharmaceuticals Limited, priority 2007, dated 2014).
Several values for one entry are separate records, joined by “and”; a condition that tells them apart may be missing. Equal values may be shown once.

Test: Pharmacokinetics of CRDL in male hamsters following intravenous and oral administration
Format: in vivo
Settings: for F: PO (20 mg/kg) vs IV (2 mg/kg)
Protocol: The plasma concentration of CRDL was determined in male hamsters following intravenous or oral administration. Hamsters were given CRDL at 2 mg/kg i.v. or 20 mg/kg p.o. Blood samples were collected at the indicated time points and the plasma was isolated.

[1] = IV (2 mg/kg), individual hamsters H1-H3, 2 mg/kg
[2] = PO (20 mg/kg), individual hamsters H4-H6, 20 mg/kg

Question: Which results are given for COc1cc2c(cc1OC)[C@H]1[C@@H](C)c3ccc(OC)c(OC)c3CN1CC2 [CRDL, 14R,13S-(+)-corydaline]?
Answer: Concentration in plasma (IV 2 mg/kg, 0.083 hr, individual hamsters H1-H3, 2 mg/kg): 621.33 ng/mL and 520.38 ng/mL and 641.16 ng/mL; Concentration in plasma (IV 2 mg/kg, 0.083 hr, mean): 594.29 ng/mL; Concentration in plasma (IV 2 mg/kg, 0.25 hr, individual hamsters H1-H3, 2 mg/kg): 255.56 ng/mL and 350.21 ng/mL and 318.96 ng/mL; Concentration in plasma (IV 2 mg/kg, 0.25 hr, mean): 308.25 ng/mL; Concentration in plasma (IV 2 mg/kg, 0.5 hr, individual hamsters H1-H3, 2 mg/kg): 124.95 ng/mL and 165.87 ng/mL and 130.79 ng/mL; Concentration in plasma (IV 2 mg/kg, 0.5 hr, mean): 140.54 ng/mL; Concentration in plasma (IV 2 mg/kg, 1 hr, individual hamsters H1-H3, 2 mg/kg): 60.71 ng/mL and 69.78 ng/mL and 69.09 ng/mL; Concentration in plasma (IV 2 mg/kg, 1 hr, mean): 66.53 ng/mL; Concentration in plasma (IV 2 mg/kg, 2 hr, individual hamsters H1-H3, 2 mg/kg): 23.92 ng/mL and 19.37 ng/mL and 27.99 ng/mL; Concentration in plasma (IV 2 mg/kg, 2 hr, mean): 23.76 ng/mL; Concentration in plasma (IV 2 mg/kg, 6 hr, individual hamsters H1-H3, 2 mg/kg): 6.34 ng/mL and 4.76 ng/mL and 4.67 ng/mL; Concentration in plasma (IV 2 mg/kg, 6 hr, mean): 5.25 ng/mL; Concentration in plasma (IV 2 mg/kg, 24 hr, individual hamsters H1-H3): BLQ; Tmax (IV (2 mg/kg), individual hamsters H1-H3): 0.08 h; AUC(0-t) [1]: 364.46 ng·h/mL and 335.91 ng·h/mL and 336.84 ng·h/mL; AUC(0-∞) [1]: 374 ng·h/mL and 351 ng·h/mL and 345 ng·h/mL; CLz [1]: 89.2 mL/min/kg and 95 mL/min/kg and 96.7 mL/min/kg; Cmax [1]: 641.16 ng/mL and 621.33 ng/mL and 520.38 ng/mL; MRT(0-∞) [1]: 0.98 h and 1.17 h and 0.94 h; Vz [1]: 10.44 L/kg and 13.64 L/kg and 9.96 L/kg; t1/2z [1]: 1.35 h and 1.66 h and 1.19 h; AUC(0-t) (IV (2 mg/kg), mean): 345.74 ng·h/mL; AUC(0-∞) (IV (2 mg/kg), mean): 357 ng·h/mL; Cmax (IV (2 mg/kg), mean): 594.29 ng/mL; MRT(0-∞) (IV (2 mg/kg), mean): 1.03 h; Tmax (IV (2 mg/kg), mean): 0.08 h; Vz (IV (2 mg/kg), mean): 11.35 L/kg; t1/2z (half life) (IV (2 mg/kg), mean): 1.4 h; CLz (clearance) (IV (2 mg/kg), mean, 2 mg/kg): 93.3 mL/min/kg and 93.7 mL/min/kg; Concentration in plasma (PO 20 mg/kg, 0.25 hr, individual hamsters H4-H6, 20 mg/kg): 1263.21 ng/mL and 895.64 ng/mL and 1308.39 ng/mL; Concentration in plasma (PO 20 mg/kg, 0.25 hr, mean): 1155.75 ng/mL; Concentration in plasma (PO 20 mg/kg, 0.75 hr, individual hamsters H4-H6, 20 mg/kg): 369.71 ng/mL and 164.19 ng/mL and 217.42 ng/mL; Concentration in plasma (PO 20 mg/kg, 0.75 hr, mean): 250.44 ng/mL; Concentration in plasma (PO 20 mg/kg, 1 hr, individual hamsters H4-H6, 20 mg/kg): 254.54 ng/mL and 146.76 ng/mL and 199.83 ng/mL; Concentration in plasma (PO 20 mg/kg, 1 hr, mean): 200.37 ng/mL; Concentration in plasma (PO 20 mg/kg, 2 hr, individual hamsters H4-H6, 20 mg/kg): 98.97 ng/mL and 62.78 ng/mL and 81.27 ng/mL; Concentration in plasma (PO 20 mg/kg, 2 hr, mean): 81.01 ng/mL; Concentration in plasma (PO 20 mg/kg, 6 hr, individual hamsters H4-H6, 20 mg/kg): 14.54 ng/mL and 9.66 ng/mL and 20.83 ng/mL; Concentration in plasma (PO 20 mg/kg, 6 hr, mean): 15.01 ng/mL; Concentration in plasma (PO 20 mg/kg, 8 hr, individual hamsters H4-H6, 20 mg/kg): 10.93 ng/mL and 6.80 ng/mL and 18.54 ng/mL; Concentration in plasma (PO 20 mg/kg, 8 hr, mean): 12.09 ng/mL; Concentration in plasma (PO 20 mg/kg, 24 hr, individual hamsters H4-H6, 20 mg/kg): 3.41 ng/mL and 2.64 ng/mL and 3.12 ng/mL; Concentration in plasma (PO 20 mg/kg, 24 hr, mean): 3.04 ng/mL; F (individual hamsters H4-H6): 34.56% and 22.28% and 33.19%; F (mean): 30.01%; Tmax (PO (20 mg/kg), individual hamsters H4-H6): 0.25 h; AUC(0-t) [2]: 1188.19 ng·h/mL and 756.88 ng·h/mL and 1154.55 ng·h/mL; AUC(0-∞) [2]: 1230 ng·h/mL and 795 ng·h/mL and 1180 ng·h/mL; Cmax [2]: 1263.21 ng/mL and 895.64 ng/mL and 1308.39 ng/mL; MRT(0-∞) [2]: 3.41 h and 3.96 h and 3.37 h; t1/2z [2]: 8.94 h and 10.13 h and 6.43 h; AUC(0-t) (PO (20 mg/kg), mean): 1033.21 ng·h/mL; AUC(0-∞) (PO (20 mg/kg), mean): 1070 ng·h/mL; Cmax (PO (20 mg/kg), mean): 1155.75 ng/mL; MRT(0-∞) (PO (20 mg/kg), mean): 3.58 h; Tmax (PO (20 mg/kg), mean): ~0.25 h; t1/2z (PO (20 mg/kg), mean): 8.50 h
